Experimental data reported in US9920057B2, “Substituted pyrazino[1′,2′:1 ,6]pyrido[3,4-b]indoles as phosphodiesterase type 5 inhibitors” (Chongqing University of Arts and Sciences, priority 2015, dated 2018).
“And” between values parts separate entries of the source, which are not always exact repeats. Equal entries are not always repeated. Where two headings read alike, the source gives them in different places.

What was measured:
[1] = molecular target: T1, PDE5A (Homo sapiens, UniProt O76074); experiment: Inhibition against PDE5 (Homogenous Time Resolve Fluoresce); format: biochemical; details: HTF
T1 construct: purchased SIGMA-ALDRICH E904
Method: Method: IC50 of an inhibition effect on PDE5A (E904, SIGMA-ALDRICH) of test compounds was tested by using Sildenafil (S1431, selleck) as a positive control sample and the method of Homogenous Time Resolve Fluoresce, HTF (Cat. No. 62GM2PEB, Cisbio.)

[2] = tested on: normal rat; experiment: Erectile function of normal rat: blood pressure, intracavernous pressure and detumescence time on cavernous nerve stimulation; format: in vivo
Method: Rats were anesthetized with 2% pentobarbital […], then incision was made in the right side of neck, a PE-50 silicon tube connected with a pressure transducer was inserted into the carotid artery, to record the change of the blood pressure.
The erectile activity was induced by a bipolar stainless-steel, stimulus parameters at a pulse width of […], stimulation frequency of 7.98 Hz, current of 3 mA, stimulation duration of 40 s, and then record the intracavernous pressure (ICP).
Assessment of erectile function: ICP, BP, change of ICP and detumescence time were monitored though electric cavernous nerve stimulation at 2, 6 and 24 hours post dosing. Erectile function was evaluated by change of ICP and detumescence time.

[3] = Study on pharmacokinetics in rats, oral administration; format: in vivo, SD rat
Method: Sample Preparation Method: One step protein precipitation
Precipitant: ACN, with concentration of Verapamil (5.00 ng·mL-1)
Calibration Curve and QC samples Preparation: 5.00 μL each of the calibration or QC working solution and 45.0 μL of blank plasma were transferred into a 1.5-mL microcentrifuge tube. Final standard curve concentration levels were 1.00, 2.50, 5.00, 10.0, 50.0, 100, 500 and 1000 ng·mL-1. The QC concentration levels were 2.50 or 5.00, 50.0 and 800 ng·mL-1. Dilution QC was 5000 ng·mL-1.
Plasma Samples Preparation: Aliquots of 10.0 μL of real samples, calibration curve samples and QC samples were supplemented with 100 μL of precipitant. After vortexed for 3.00 min and centrifuged at 12000 rpm for 5.00 min, the supernatant 10 μL was injected for LC-MS/MS analysis.
Number of Rats/Group: 3/group
Administration Route: oral administration
Blood Collection Time: 0 min, 15 min, 30 min, 1 h, 2 h, 4 h, 6 h, 8 h, 24 h

[4] = molecular target: T2, PDE7A (Homo sapiens, UniProt Q13946); experiment: Inhibition of PDE activity (assay kit); format: biochemical
T2 construct: purchased
Method: (§1) i. Supplement 99 μl assay buffer per well, then add 1 μl compound in DMSO dilution to wells of V96 MicroWell Plates and uniformly mix;
(§2) ii. Add 5 μl compound in assay buffer dilution to each well of 96-well microplate;
(§3) the final concentration of compound as below:
(§4) The inhibitory potential of test compounds on several types of phosphodiesterase (PDE) activity is determined according to the protocol of assay kit.

[5] = molecular target: T3, PDE4A (Homo sapiens, UniProt P27815); experiment: Inhibition of PDE activity (assay kit); format: biochemical
T3 construct: purchased
Method: as §1, §2, §3, §4

[6] = molecular target: T4, PDE1A (Homo sapiens, UniProt P54750); experiment: Inhibition of PDE activity (assay kit); format: biochemical
T4 construct: purchased
Method: as §1, §2, §3, §4

[7] = molecular target: T5, PDE6C (Homo sapiens, UniProt P51160); experiment: Inhibition of PDE activity (assay kit); format: biochemical
T5 construct: purchased
Method: as §1, §2, §3, §4

[8] = molecular target: T6, PDE2A (Homo sapiens, UniProt O00408); experiment: Inhibition of PDE activity (assay kit); format: biochemical
T6 construct: purchased
Method: as §1, §2, §3, §4

[9] = molecular target: T7, PDE11A (Homo sapiens, UniProt Q9HCR9); experiment: Inhibition of PDE activity (assay kit); format: biochemical
T7 construct: purchased
Method: as §1, §2, §3, §4

[10] = molecular target: T8, PDE3A (Homo sapiens, UniProt Q14432); experiment: Inhibition of PDE activity (assay kit); format: biochemical
T8 construct: purchased
Method: as §1, §2, §3, §4

[11] = 2 hours after dosing, High dose
[12] = 2 hours after dosing, Middle dose
[13] = 6 hours after dosing, High dose
[14] = 6 hours after dosing, Middle dose
[15] = 24 hours after dosing, High dose
[16] = 24 hours after dosing, Low dose
[17] = 24 hours after dosing, Middle dose
[18] = Mean of 3 rats, oral 10.0 mg · kg^−1
[19] = individual rats, oral 10.0 mg · kg^−1

T7 sequence (Q9HCR9 whole entry): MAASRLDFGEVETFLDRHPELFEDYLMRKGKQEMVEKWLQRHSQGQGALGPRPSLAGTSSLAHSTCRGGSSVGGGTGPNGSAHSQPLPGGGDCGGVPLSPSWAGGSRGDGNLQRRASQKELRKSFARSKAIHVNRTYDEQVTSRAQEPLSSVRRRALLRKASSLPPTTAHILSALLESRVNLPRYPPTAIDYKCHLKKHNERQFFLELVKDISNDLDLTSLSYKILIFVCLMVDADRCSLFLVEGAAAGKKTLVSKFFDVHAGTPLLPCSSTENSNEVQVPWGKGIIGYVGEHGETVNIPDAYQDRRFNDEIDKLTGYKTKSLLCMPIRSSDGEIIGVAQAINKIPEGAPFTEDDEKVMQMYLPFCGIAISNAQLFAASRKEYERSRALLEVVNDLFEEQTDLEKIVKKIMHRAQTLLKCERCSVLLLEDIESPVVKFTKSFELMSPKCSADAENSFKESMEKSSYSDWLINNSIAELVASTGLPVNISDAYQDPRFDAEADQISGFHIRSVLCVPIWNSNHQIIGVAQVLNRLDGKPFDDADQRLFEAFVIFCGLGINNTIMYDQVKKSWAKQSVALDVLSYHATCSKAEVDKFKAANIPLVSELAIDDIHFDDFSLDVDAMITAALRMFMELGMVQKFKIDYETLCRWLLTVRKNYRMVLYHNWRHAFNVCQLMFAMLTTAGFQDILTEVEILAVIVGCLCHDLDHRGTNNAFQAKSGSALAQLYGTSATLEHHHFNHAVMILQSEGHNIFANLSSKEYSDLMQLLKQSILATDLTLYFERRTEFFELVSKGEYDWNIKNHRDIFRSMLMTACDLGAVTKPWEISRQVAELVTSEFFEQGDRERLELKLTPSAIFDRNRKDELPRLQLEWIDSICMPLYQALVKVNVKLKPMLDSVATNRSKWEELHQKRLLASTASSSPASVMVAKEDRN
T2 sequence (Q13946 whole entry): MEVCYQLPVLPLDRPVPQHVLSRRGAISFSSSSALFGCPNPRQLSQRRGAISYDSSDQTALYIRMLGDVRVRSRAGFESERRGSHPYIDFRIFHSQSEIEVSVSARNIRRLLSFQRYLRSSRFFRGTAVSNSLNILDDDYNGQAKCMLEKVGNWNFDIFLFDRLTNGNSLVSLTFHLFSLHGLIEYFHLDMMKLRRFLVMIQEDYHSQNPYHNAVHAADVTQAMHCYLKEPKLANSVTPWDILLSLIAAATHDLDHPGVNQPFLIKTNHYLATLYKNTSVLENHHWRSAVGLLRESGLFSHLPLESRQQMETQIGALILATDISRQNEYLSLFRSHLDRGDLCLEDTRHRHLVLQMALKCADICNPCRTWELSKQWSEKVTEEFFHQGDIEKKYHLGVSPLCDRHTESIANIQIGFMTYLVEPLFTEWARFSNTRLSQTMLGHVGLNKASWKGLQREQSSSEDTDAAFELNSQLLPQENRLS
T6 sequence (O00408 whole entry): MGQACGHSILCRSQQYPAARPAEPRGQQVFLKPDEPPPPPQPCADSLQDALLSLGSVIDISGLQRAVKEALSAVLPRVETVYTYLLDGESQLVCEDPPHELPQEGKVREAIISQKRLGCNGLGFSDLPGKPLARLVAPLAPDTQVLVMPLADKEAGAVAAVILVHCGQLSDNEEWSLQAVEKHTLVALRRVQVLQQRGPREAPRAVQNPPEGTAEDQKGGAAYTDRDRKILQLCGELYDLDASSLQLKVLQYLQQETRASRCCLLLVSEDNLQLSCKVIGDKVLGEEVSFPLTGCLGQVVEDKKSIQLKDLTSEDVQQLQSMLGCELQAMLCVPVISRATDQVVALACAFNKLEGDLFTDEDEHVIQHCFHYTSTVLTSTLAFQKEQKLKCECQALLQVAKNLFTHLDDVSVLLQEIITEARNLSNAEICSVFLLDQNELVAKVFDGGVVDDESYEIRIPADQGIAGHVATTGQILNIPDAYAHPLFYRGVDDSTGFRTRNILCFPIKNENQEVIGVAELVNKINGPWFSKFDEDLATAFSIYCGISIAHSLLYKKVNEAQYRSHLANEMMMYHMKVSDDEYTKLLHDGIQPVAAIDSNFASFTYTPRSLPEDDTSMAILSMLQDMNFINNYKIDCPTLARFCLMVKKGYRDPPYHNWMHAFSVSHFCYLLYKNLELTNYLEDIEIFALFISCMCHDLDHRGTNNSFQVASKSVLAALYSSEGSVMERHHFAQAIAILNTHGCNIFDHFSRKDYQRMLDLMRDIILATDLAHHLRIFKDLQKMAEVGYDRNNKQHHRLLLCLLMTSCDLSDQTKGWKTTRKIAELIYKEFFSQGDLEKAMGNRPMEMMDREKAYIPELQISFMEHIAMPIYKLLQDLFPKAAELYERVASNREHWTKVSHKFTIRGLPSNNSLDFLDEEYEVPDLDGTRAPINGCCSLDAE
T8 sequence (Q14432 whole entry): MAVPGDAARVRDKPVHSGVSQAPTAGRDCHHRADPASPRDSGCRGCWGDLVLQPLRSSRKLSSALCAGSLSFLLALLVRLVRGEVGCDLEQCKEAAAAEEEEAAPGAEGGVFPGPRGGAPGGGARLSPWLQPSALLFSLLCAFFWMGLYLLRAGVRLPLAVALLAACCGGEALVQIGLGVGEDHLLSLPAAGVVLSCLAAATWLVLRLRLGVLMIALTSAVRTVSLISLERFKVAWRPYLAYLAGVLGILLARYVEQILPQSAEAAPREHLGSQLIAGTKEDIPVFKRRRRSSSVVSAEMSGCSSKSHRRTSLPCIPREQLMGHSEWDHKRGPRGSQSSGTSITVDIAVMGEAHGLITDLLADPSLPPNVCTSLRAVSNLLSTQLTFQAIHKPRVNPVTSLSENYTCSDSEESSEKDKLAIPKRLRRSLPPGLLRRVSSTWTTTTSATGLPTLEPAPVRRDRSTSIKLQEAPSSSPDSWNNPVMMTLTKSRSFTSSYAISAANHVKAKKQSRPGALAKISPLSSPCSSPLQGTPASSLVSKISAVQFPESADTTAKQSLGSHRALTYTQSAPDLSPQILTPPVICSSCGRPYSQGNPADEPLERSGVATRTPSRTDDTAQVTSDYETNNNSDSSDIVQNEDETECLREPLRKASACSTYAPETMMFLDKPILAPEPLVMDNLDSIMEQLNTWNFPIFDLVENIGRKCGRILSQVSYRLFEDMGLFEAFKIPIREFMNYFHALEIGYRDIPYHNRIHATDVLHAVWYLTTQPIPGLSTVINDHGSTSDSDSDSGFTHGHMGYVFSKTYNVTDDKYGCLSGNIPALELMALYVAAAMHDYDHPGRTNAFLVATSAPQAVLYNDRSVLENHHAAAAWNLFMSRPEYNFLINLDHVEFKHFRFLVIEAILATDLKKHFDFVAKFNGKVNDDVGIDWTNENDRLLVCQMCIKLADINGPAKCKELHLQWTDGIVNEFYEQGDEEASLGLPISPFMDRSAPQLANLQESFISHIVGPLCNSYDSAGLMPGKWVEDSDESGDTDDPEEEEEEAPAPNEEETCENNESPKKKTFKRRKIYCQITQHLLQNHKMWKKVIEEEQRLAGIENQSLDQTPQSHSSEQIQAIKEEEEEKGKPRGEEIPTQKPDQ
T4 sequence (P54750 whole entry): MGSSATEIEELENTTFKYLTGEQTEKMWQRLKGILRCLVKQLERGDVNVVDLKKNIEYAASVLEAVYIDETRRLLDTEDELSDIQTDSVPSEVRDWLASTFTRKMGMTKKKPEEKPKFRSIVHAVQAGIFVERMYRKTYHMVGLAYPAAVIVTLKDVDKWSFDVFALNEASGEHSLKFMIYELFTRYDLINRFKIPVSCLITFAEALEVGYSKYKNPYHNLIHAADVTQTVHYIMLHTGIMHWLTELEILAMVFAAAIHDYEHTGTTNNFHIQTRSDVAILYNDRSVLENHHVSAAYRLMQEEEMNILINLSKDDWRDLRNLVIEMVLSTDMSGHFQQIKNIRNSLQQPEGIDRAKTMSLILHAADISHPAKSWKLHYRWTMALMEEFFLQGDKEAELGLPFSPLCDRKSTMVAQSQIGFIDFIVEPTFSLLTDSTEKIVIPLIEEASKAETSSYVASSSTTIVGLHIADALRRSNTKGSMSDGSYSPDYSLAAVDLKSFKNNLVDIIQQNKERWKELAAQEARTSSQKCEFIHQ
T3 sequence (P27815 1-647 isoform P27815-4): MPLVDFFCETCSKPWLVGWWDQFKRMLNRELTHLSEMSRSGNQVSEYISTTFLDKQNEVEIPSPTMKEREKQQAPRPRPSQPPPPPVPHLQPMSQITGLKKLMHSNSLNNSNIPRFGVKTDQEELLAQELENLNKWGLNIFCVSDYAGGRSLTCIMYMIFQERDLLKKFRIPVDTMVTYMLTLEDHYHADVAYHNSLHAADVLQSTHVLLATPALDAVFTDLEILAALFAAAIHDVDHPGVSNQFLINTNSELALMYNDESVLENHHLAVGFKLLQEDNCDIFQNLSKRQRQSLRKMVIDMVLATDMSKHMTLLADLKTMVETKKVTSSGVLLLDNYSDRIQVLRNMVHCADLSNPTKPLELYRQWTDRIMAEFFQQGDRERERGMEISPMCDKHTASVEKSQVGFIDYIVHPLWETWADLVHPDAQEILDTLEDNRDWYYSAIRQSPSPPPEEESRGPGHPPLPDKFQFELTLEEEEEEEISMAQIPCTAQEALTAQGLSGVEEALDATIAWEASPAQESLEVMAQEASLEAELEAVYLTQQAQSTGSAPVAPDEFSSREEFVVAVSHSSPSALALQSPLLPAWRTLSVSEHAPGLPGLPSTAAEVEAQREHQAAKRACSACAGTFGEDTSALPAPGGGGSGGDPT

IC50 [1]: 0.0336 µM
AUMC0-inf [3, 18]: 50280 h · h · ng · mL^−1
AUMC0-t [3, 18]: 49982 h · h · ng · mL^−1
Kel [3, 18]: 0.305 h⁻¹
MRTPO [3, 18]: 4.68 h
half-life ([3]; SD, rat, plasma, po, 10 mg/kg, Mean of 3 rats, oral 10.0 mg · kg^−1): 2.29 h
AUC0-inf ([3]; SD, rat, plasma, po, 10 mg/kg, Mean of 3 rats, oral 10.0 mg · kg^−1, read-out: AUC0-inf): 10800 ng·h/mL
AUC0-t ([3]; SD, rat, plasma, po, 10 mg/kg, Mean of 3 rats, oral 10.0 mg · kg^−1, read-out: AUC0-t): 10800 ng·h/mL
Cmax ([3]; SD, rat, plasma, po, 10 mg/kg, Mean of 3 rats, oral 10.0 mg · kg^−1, read-out: Cmax): 1470 ng/mL
half-life ([3]; SD, rat, plasma, po, 10 mg/kg, individual rats, oral 10.0 mg · kg^−1): 2.12 h
AUC0-inf ([3]; SD, rat, plasma, po, 10 mg/kg, individual rats, oral 10.0 mg · kg^−1, read-out: AUC0-inf): 9980 ng·h/mL
AUC0-t ([3]; SD, rat, plasma, po, 10 mg/kg, individual rats, oral 10.0 mg · kg^−1, read-out: AUC0-t): 9970 ng·h/mL
Cmax ([3]; SD, rat, plasma, po, 10 mg/kg, individual rats, oral 10.0 mg · kg^−1, read-out: Cmax): 1300 ng/mL
Tmax ([3]; SD, rat, plasma, individual rats, oral 10.0 mg · kg^−1): 2 h
Cmax [3, 19]: 1574 ng/mL and 1528 ng/mL
Kel [3, 19]: 0.327 h⁻¹ and 0.269 h⁻¹ and 0.319 h⁻¹
MRTPO [3, 19]: 4.88 h and 4.55 h and 4.61 h
t1/2 [3, 19]: 2.58 h and 2.17 h
Cmax and Auc, comparison in words ([3]; rat, oral, compared with Cialis): more excellent than those of Cialis
IC50 [4]: > 10 µM
inhibition at 10 µM ([4]; at 10 μM): 0%
IC50 ([5]; PDE4A): > 10 µM
inhibition at 10 µM ([5]; PDE4A1A, at 10 μM): 0%
IC50 [6]: > 10 µM
inhibition at 10 µM ([6]; at 10 μM): 0%
IC50 [7]: 14.7 µM
IC50 [8]: > 10 µM
inhibition at 10 µM ([8]; at 10 μM): 0%
IC50 [9]: 2.6 µM and 2.64 µM
IC50 [10]: > 10 µM
inhibition at 10 µM ([10]; at 10 μM): 0%
SMILES: [2H]C1([2H])Oc2ccc([C@@H]3c4[nH]c5ccccc5c4C[C@@H]4C(=O)N(N)CC(=O)N34)cc2O1 [DDCI-01, (6R,12aR)-2-amino-6-(benzo[d][1,3]dioxol-5-yl-2,2-d2)-2,3,6,7,12,12a-hexahydropyrazino[1′,2′:1,6]pyrido[3,4-b]indole-1,4-dione]
BP after stimulation [2, 11]: 60.97 ± 19.95 mmHg
BP before stimulation [2, 11]: 91.86 ± 21.57 mmHg
Change of BP [2, 11]: 30.89 ± 4.09 mmHg
Change of ICP [2, 11]: 41.20 ± 9.83 mmHg
Detumescence Time [2, 11]: 101.00 ± 21.56 s
ICP after stimulation [2, 11]: 52.25 ± 9.49 mmHg
ICP before stimulation [2, 11]: 11.05 ± 3.25 mmHg
BP after stimulation ([2]; 2 hours after dosing, Low dose): 63.89 ± 2.93 mmHg
BP before stimulation ([2]; 2 hours after dosing, Low dose): 97.43 ± 11.45 mmHg
Change of BP ([2]; 2 hours after dosing, Low dose): 33.54 ± 13.57 mmHg
Change of ICP ([2]; 2 hours after dosing, Low dose): 31.38 ± 3.09 mmHg
Detumescence Time ([2]; 2 hours after dosing, Low dose): 38.00 ± 10.42 s
ICP after stimulation ([2]; 2 hours after dosing, Low dose): 42.86 ± 5.14 mmHg
ICP before stimulation ([2]; 2 hours after dosing, Low dose): 11.48 ± 4.57 mmHg
BP after stimulation [2, 12]: 70.38 ± 7.82 mmHg
BP before stimulation [2, 12]: 96.49 ± 7.55 mmHg
Change of BP [2, 12]: 26.12 ± 3.04 mmHg
Change of ICP [2, 12]: 33.09 ± 7.46 mmHg
Detumescence Time [2, 12]: 40.75 ± 4.79 s
ICP after stimulation [2, 12]: 41.58 ± 7.94 mmHg
ICP before stimulation [2, 12]: 8.49 ± 2.06 mmHg
BP after stimulation [2, 13]: 50.09 ± 22.36 mmHg
BP before stimulation [2, 13]: 76.38 ± 21.11 mmHg
Change of BP [2, 13]: 26.29 ± 1.54 mmHg
Change of ICP [2, 13]: 41.74 ± 7.92 mmHg
Detumescence Time [2, 13]: 64.00 ± 19.37 s
ICP after stimulation [2, 13]: 50.94 ± 11.12 mmHg
ICP before stimulation [2, 13]: 9.20 ± 8.79 mmHg
BP after stimulation ([2]; 6 hours after dosing, Low dose): 61.78 ± 17.93 mmHg
BP before stimulation ([2]; 6 hours after dosing, Low dose): 95.73 ± 18.25 mmHg
Change of BP ([2]; 6 hours after dosing, Low dose): 33.95 ± 3.20 mmHg
Change of ICP ([2]; 6 hours after dosing, Low dose): 31.38 ± 7.73 mmHg
Detumescence Time ([2]; 6 hours after dosing, Low dose): 47.75 ± 11.79 s
ICP after stimulation ([2]; 6 hours after dosing, Low dose): 40.36 ± 5.92 mmHg
ICP before stimulation ([2]; 6 hours after dosing, Low dose): 8.98 ± 3.06 mmHg
BP after stimulation [2, 14]: 61.03 ± 12.64 mmHg
BP before stimulation [2, 14]: 92.91 ± 19.51 mmHg
Change of BP [2, 14]: 31.88 ± 7.39 mmHg
Change of ICP [2, 14]: 33.49 ± 8.09 mmHg
Detumescence Time [2, 14]: 48.00 ± 23.85 s
ICP after stimulation [2, 14]: 40.21 ± 8.37 mmHg
ICP before stimulation [2, 14]: 6.72 ± 3.14 mmHg
BP after stimulation [2, 15]: 52.95 ± 14.12 mmHg
BP before stimulation [2, 15]: 94.16 ± 9.79 mmHg
Change of BP [2, 15]: 41.21 ± 11.98 mmHg
Change of ICP [2, 15]: 43.36 ± 4.90 mmHg
Detumescence Time [2, 15]: 60.75 ± 24.14 s
ICP after stimulation [2, 15]: 52.77 ± 2.07 mmHg
ICP before stimulation [2, 15]: 9.41 ± 3.81 mmHg
BP after stimulation [2, 16]: 72.34 ± 12.33 mmHg
BP before stimulation [2, 16]: 108.36 ± 8.89 mmHg
Change of BP [2, 16]: 36.03 ± 10.90 mmHg
Change of ICP [2, 16]: 30.65 ± 0.98 mmHg
Detumescence Time [2, 16]: 23.75 ± 12.84 s
ICP after stimulation [2, 16]: 43.55 ± 5.05 mmHg
ICP before stimulation [2, 16]: 12.91 ± 5.02 mmHg
BP after stimulation [2, 17]: 69.85 ± 12.70 mmHg
BP before stimulation [2, 17]: 102.18 ± 15.12 mmHg
Change of BP [2, 17]: 32.33 ± 8.76 mmHg
Change of ICP [2, 17]: 31.58 ± 5.75 mmHg
Detumescence Time [2, 17]: 41.25 ± 14.50 s
ICP after stimulation [2, 17]: 40.00 ± 5.56 mmHg
ICP before stimulation [2, 17]: 8.41 ± 1.86 mmHg
erectile function of the normal rat model, result in words ([2]; high, middle, and low doses, Tables 1-9): significantly improved the erectile function
half-life (T1/2), comparison in words ([3]; SD rat, oral, compared with Cialis and DDCI02): slightly shorter than that of Cialis and significantly shorter than that of DDCI02
AUC0-inf [3, 19]: 11221 ng·h/mL and 11087 ng·h/mL
AUC0-t [3, 19]: 11202 ng·h/mL and 11080 ng·h/mL
AUMC0-inf [3, 19]: 48665 h · h · ng · mL^−1 and 51065 h · h · ng · mL^−1 and 51110 h · h · ng · mL^−1
AUMC0-t [3, 19]: 48497 h · h · ng · mL^−1 and 50539 h · h · ng · mL^−1 and 50911 h · h · ng · mL^−1
